Measurements reported in patent US6821926B1, “Carbamoyl triazolinone based herbicide” (Bayer Aktiengesellschaft, priority 1999, dated 2004).

How the values were obtained:
Experiment in all cases: Pre-emergence/greenhouse herbicidal test, % damage
Assay type in all cases: in vivo
Galium = conditions: pre-emergence, after approximately 3 weeks
Protocol: (§1) Customary formulations of the respective active compounds were used. Butafenacil was employed as Inspire® 100 EC, azafenidin as an 80 WG formulation and the compound of the formula (I-1) as a 70 WG formulation. The active compounds were used to prepare an aqueous spray mixture with 0.1% of Renex-36 as additive. Pre-emergence/greenhouse Seeds of the test plants are sown in standard soil. After 24 hours, the test compound or the combination of test compounds, is sprayed onto the soil surface in such a manner as to apply the amount of active compound per unit area desired in each case. The concentration of the spray mixture is chosen so that the desired amounts of active compound desired are applied in 500 l of water per ha. After the spray application, the plant containers are placed in the greenhouse under constant light and temperature conditions. After approximately 3 weeks, the degree of damage of the crop plants is scored in % damage in comparison with the development of the untreated control. The figures denote: 0%=no damage (as untreated control) 100%=Total destruction/damage

Datura = conditions: pre-emergence, after approximately 3 weeks
Protocol: as §1

Abutilon = conditions: pre-emergence, after approximately 3 weeks
Protocol: as §1

Setaria = conditions: pre-emergence, after approximately 3 weeks
Protocol: as §1

Ipomea = conditions: pre-emergence, after approximately 3 weeks
Protocol: as §1

Solanum = conditions: after approximately 3 weeks
Protocol: as §1

Xanthium = conditions: pre-emergence, after approximately 3 weeks
Protocol: as §1

Alopecurus = conditions: pre-emergence, after approximately 3 weeks
Protocol: as §1

Digitaria = conditions: pre-emergence, after approximately 3 weeks
Protocol: as §1

Cassia = conditions: pre-emergence, after approximately 3 weeks
Protocol: as §1

CC(C)c1nn(C(=O)NC(C)(C)C)c(=O)n1N [Compound (I-1), 4-amino-5-(1-methyl-ethyl)-2-(1,1-dimethyl-ethyl-aminocarbonyl)-2,4-dihydro-3H-1,2,4-triazol-3-one]
Galium observed (Galium; 125 g ai/ha): 80%
Datura observed (Datura; 60 g ai/ha): 50%
Abutilon observed (Abutilon; 60 g ai/ha): 50%
Setaria observed (Setaria; 125 g ai/ha): 0%
Ipomea observed (Ipomea; 125 g ai/ha): 50%
Solanum observed (Solanum; pre-emergence, 60 g ai/ha): 90%
Xanthium observed (Xanthium; 125 g ai/ha): 90%
Alopecurus observed (Alopecurus; 125 g ai/ha): 0%
Digitaria observed (Digitaria; 125 g ai/ha): 40%
Cassia observed (Cassia; 60 g ai/ha): 30%

C=CCOC(=O)C(C)(C)OC(=O)c1cc(-n2c(=O)cc(C(F)(F)F)n(C)c2=O)ccc1Cl [Butafenacil, [1,1-dimethyl-2-oxo-2-(2-propenyloxy)]-ethyl 2-chloro-5-(3,6-dihydro-3-methyl-2,6-dioxo-4-trifluoromethyl-1(2H)-pyrimidinyl)-benzoate]
Galium observed (Galium; 1 g ai/ha): 0%
Datura observed (Datura; 2 g ai/ha): 30%
Abutilon observed (Abutilon; 2 g ai/ha): 30%
Setaria observed (Setaria; 0.5 g ai/ha): 0%
Setaria observed (Setaria; 2 g ai/ha): 0%
Ipomea observed (Ipomea; 0.5 g ai/ha): 0%
Solanum observed (Solanum; pre-emergence, 0,5 g ai/ha): 0%
Solanum observed (Solanum; pre-emergence, 1 g ai/ha): 0%
Solanum observed (Solanum; pre-emergence, 2 g ai/ha): 0%
Xanthium observed (Xanthium; 2 g ai/ha): 0%
Alopecurus observed (Alopecurus; 0.5 g ai/ha): 0%
Alopecurus observed (Alopecurus; 2 g ai/ha): 0%
Digitaria observed (Digitaria; 0.5 g ai/ha): 20%
Digitaria observed (Digitaria; 1 g ai/ha): 20%
Cassia observed (Cassia; 0.5 g ai/ha): 0%
